From patent US20260209212A1, “HETEROCYCLIC GLP-1 AGONISTS” (Gasherbrum Bio, Inc., priority 2022, published 2026) come the findings set out here.

This experiment deals with GLP-1 Receptor (Homo sapiens, UniProt P43220). The experiment is described as follows: GLP-1R agonist cAMP stimulation assay. The experiment is classed as cell-based. As to conditions: HEK293/GLP1R/CRE-LUC cells stably expressing the GLP-1 Receptor; cAMP dynamic 2 Kit (Cisbio); 30 min at 37° C. On the procedure: Activation of GLP-1 receptor is known to stimulate cyclic AMP (cAMP) production in cells which indicates primary coupling to the G as subunit of the G protein heterotrimeric complex.
GLP-1 Receptor, sequence (P43220 24-463): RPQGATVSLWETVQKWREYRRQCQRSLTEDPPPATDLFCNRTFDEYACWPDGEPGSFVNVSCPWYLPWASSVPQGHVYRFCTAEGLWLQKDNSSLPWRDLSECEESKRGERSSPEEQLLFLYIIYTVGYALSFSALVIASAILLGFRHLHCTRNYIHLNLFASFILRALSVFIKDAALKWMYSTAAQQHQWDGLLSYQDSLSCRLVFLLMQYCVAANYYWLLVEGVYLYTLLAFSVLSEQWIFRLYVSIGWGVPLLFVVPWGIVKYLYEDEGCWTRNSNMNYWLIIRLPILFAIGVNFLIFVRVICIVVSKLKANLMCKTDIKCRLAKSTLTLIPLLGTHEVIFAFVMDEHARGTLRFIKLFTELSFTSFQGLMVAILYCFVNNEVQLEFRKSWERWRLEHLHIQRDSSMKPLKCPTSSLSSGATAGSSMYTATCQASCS
To optimize functional activity directed toward G as coupling, a HEK293/CRE-Luc cell line developed by HDB stably expressing the GLP-1 Receptor was used. 200× concentration of compound working solutions were prepared (Agilent Technologies Bravo) with ½ log serial dilution in 384-well Echo LDV plate (Labcyte, Cat #LP-0200). 50 nL/well 200× concentration of compound working solutions were moved to 384-well white low volume plate (Greiner, Cat #784075) using Labcyte ECHO550.1×10^5 cells/mL HEK293/GLP1R/CRE-LUC (HD Biosciences) cell suspensions prepared with assay buffer [DPBS containing 0.5 mM IBMX (Sigma, Cat #I5879) and 0.1% BSA (GENVIEW, Cat #FA016-100 g)], 10 μL cell suspensions were added to each well of previous generated assay plate which already contains 50 nL compound at 200× concentration using ThermoFisher Multidrop Combi (1000 cells/well). Seal the plate and incubate at 37° C. with 5% CO2 for 30 min.
After incubation the cAMP assay signal was generated using cAMP dynamic 2 Kit (Cisbio). 5 μL cAMP-d2 working solution was added to each well, followed with 5 μL Anti-cAMP antibody-cryptate working solution added to each well using ThermoFisher Multidrop Combi. Incubate at room temperature for 1 hour protected from light. Read the fluorescence at 665 and 615 nm with Reader PerkinElmer EnVision.
Turning to `O=C(O)c1ccc2nc(CN3CCC(c4cccc5c4OC[C@@H](c4ccc(Cl)c6ccoc46)O5)CC3)n(C[C@@H]3CCO3)c2c1` [Compound 101], a half-maximal response (EC50) required 0.024 nM.
The compound `O=C(O)c1ccc2nc(CN3CCC(c4cccc5c4OC[C@@H](c4ccc6cnn(CC(F)F)c6c4)O5)CC3)n(C[C@@H]3CCO3)c2c1` [Compound 102, 2-({4-[(2R)-2-[1-(2,2-difluoroethyl)-1H-indazol-6-yl]-2,3-dihydro-1,4-benzodioxin-5-yl]piperidin-1-yl}methyl)-1-{[(2S)-oxetan-2-yl]methyl}-1H-1,3-benzodiazole-6-carboxylic acid] showed an EC50 of 0.065 nM.
Regarding `N#Cc1ccc([C@@H]2COc3c(cccc3C3CCN(Cc4nc5ccc(C(=O)O)c(F)c5n4C[C@@H]4CCO4)CC3)O2)cc1` [Compound 103], a half-maximal effect (EC50) was put at 0.057 nM.
Under `N#Cc1ccc([C@@H]2COc3c(cccc3C3CCN(Cc4nc5c(F)cc(C(=O)O)cc5n4C[C@@H]4CCO4)CC3)O2)cc1` [Compound 104, 2-({4-[(2R)-2-(4-cyanophenyl)-2,3-dihydro-1,4-benzodioxin-5-yl]piperidin-1-yl}methyl)-4-fluoro-1-{[(2S)-oxetan-2-yl]methyl}-1H-1,3-benzodiazole-6-carboxylic acid] stands 0.027 nM; under `CCn1cncc1Cn1c(CN2CCC(c3cccc4c3OC[C@@H](c3ccc(C#N)cc3)O4)CC2)nc2ccc(C(=O)O)cc21` [Compound 105], 0.012 nM; under `N#Cc1ccc([C@@H]2COc3c(cccc3C3CCN(Cc4nc5ccc(C(=O)O)cc5n4CC4CCOC4)CC3)O2)cc1` (stereo partly drawn) [Compound 106, 2-({4-[(2R)-2-(4-cyanophenyl)-2,3-dihydro-1,4-benzodioxin-5-yl]piperidin-1-yl}methyl)-1-[(oxolan-3-yl)methyl]-1H-1,3-benzodiazole-6-carboxylic acid], 1.6 nM.
For `N#Cc1ccc([C@@H]2COc3c(cccc3C3CCN(Cc4nc5ccc(C(=O)O)cc5n4CC4(C#N)CC4)CC3)O2)cc1` [Compound 107], the EC50 came out at 0.18 nM.
In turn, `N#Cc1ccc([C@@H]2COc3c(cccc3C3CCN(Cc4nc5c(F)cc(C(=O)O)c(F)c5n4C[C@@H]4CCO4)CC3)O2)cc1` [Compound 108, 2-({4-[(2R)-2-(4-cyanophenyl)-2,3-dihydro-1,4-benzodioxin-5-yl]piperidin-1-yl}methyl)-4,7-difluoro-1-{[(2S)-oxetan-2-yl]methyl}-1H-1,3-benzodiazole-6-carboxylic acid] displayed an EC50 of 0.025 nM.
Under `C[C@H]1CC(c2cccc3c2OC[C@@H](c2ccc(C#N)cc2)O3)CCN1Cc1nc2c(F)cc(C(=O)O)cc2n1C[C@@H]1CCO1` (stereo partly drawn) [Compound 109] stands 0.041 nM; under `N#Cc1ccc([C@@H]2COc3c(cccc3C34CCN(Cc5nc6ccc(C(=O)O)cc6n5C[C@@H]5CCO5)CC3C4)O2)cc1` (stereo partly drawn) [Compound 110, 2-({6-[(2R)-2-(4-cyanophenyl)-2,3-dihydro-1,4-benzodioxin-5-yl]-3-azabicyclo[4.1.0]heptan-3-yl}methyl)-1-{[(2S)-oxetan-2-yl]methyl}-1H-1,3-benzodiazole-6-carboxylic acid], 100 nM; under `O=C(O)c1cc(F)c2nc(CN3CCC(c4cccc5c4OC[C@@H](c4ccc(Cl)cc4)O5)CC3)n(C[C@@H]3CCO3)c2c1` [Compound 111, 2-({4-[(2R)-2-(4-chlorophenyl)-2,3-dihydro-1,4-benzodioxin-5-yl]piperidin-1-yl}methyl)-4-fluoro-1-{[(2S)-oxetan-2-yl]methyl}-1H-1,3-benzodiazole-6-carboxylic acid], 0.017 nM.
The value for `N#CCC1(Cn2c(CN3CCC(c4cccc5c4OC[C@@H](c4ccc(C#N)cc4)O5)CC3)nc3c(F)cc(C(=O)O)cc32)CC1` [Compound 112] was 0.026 nM; that for `CC(=O)N1C[C@H](F)C[C@@H]1Cn1c(CN2CCC(c3cccc4c3OC[C@@H](c3ccc(C#N)cc3)O4)CC2)nc2ccc(C(=O)O)cc21` [Compound 113] was 4 nM; that for `CO[C@@H]1COC[C@@H]1n1c(CN2CCC(c3cccc4c3OC[C@@H](c3ccc(C#N)cc3)O4)CC2)nc2ccc(C(=O)O)cc21` [Compound 114, 2-({4-[(2R)-2-(4-cyanophenyl)-2,3-dihydro-1,4-benzodioxin-5-yl]piperidin-1-yl}methyl)-1-[(3S,4S)-4-methoxyoxolan-3-yl]-1H-1,3-benzodiazole-6-carboxylic acid] was 0.024 nM.
The value for `O=C(O)c1cc(F)c2nc(CN3CCC(c4cccc5c4OC[C@@H](c4ccc(C(F)F)cc4)O5)CC3)n(C[C@@H]3CCO3)c2c1` [Compound 115] was 0.055 nM; that for `O=C(O)c1cc(F)c2nc(CN3CCC(c4cccc5c4OC[C@@H](c4ccc(C(F)(F)F)cc4)O5)CC3)n(C[C@@H]3CCO3)c2c1` [Compound 116] was 0.029 nM; that for `O=C(O)c1ccc2nc(CN3CC=C(c4cccc5c4OC[C@@H](c4ccc6cnn(CC(F)F)c6c4)O5)CC3)n(C[C@@H]3CCO3)c2c1` [Compound 117] was 0.42 nM.
In turn, `COc1cc(C(=O)O)cc2c1nc(CN1CCC(c3cccc4c3OC[C@@H](c3ccc(C#N)cc3)O4)CC1)n2C[C@@H]1CCO1` [Compound 118, 2-({4-[(2R)-2-(4-cyanophenyl)-2,3-dihydro-1,4-benzodioxin-5-yl]piperidin-1-yl}methyl)-4-methoxy-1-{[(2S)-oxetan-2-yl]methyl}-1H-1,3-benzodiazole-6-carboxylic acid] gave an EC50 of 0.011 nM.
The compound `COc1cc(C(=O)O)cc2c1nc(CN1CCC(c3cccc4c3OC[C@@H](c3ccc(Cl)cc3)O4)CC1)n2C[C@@H]1CCO1` [Compound 119, 2-({4-[(2R)-2-(4-chlorophenyl)-2,3-dihydro-1,4-benzodioxin-5-yl]piperidin-1-yl}methyl)-4-methoxy-1-{[(2S)-oxetan-2-yl]methyl}-1H-1,3-benzodiazole-6-carboxylic acid] registered an EC50 of 0.011 nM.
`COc1cc(C(=O)O)cc2c1nc(CN1CCC(c3cccc4c3OC[C@@H](c3ccc(Cl)c5ccoc35)O4)CC1)n2C[C@@H]1CCO1` [Compound 120, 2-({4-[(2R)-2-(4-chloro-1-benzofuran-7-yl)-2,3-dihydro-1,4-benzodioxin-5-yl]piperidin-1-yl}methyl)-4-methoxy-1-{[(2S)-oxetan-2-yl]methyl}-1H-1,3-benzodiazole-6-carboxylic acid] registered an EC50 of 0.005 nM.
Compound `O=C(O)c1cc(F)c2nc(CN3CCC(c4cccc5c4OC[C@@H](c4ccc(Cl)cc4)O5)CC3)n(C[C@@H]3CCO3)c2c1F` [Compound 121] gave an EC50 of 0.031 nM.
`O=C(O)c1cc(F)c2nc(CN3CCC(c4cccc5c4OC[C@@H](c4ccc(Cl)c6ccoc46)O5)CC3)n(C[C@@H]3CCO3)c2c1` [Compound 122, 2-({4-[(2R)-2-(4-chloro-1-benzofuran-7-yl)-2,3-dihydro-1,4-benzodioxin-5-yl]piperidin-1-yl}methyl)-4-fluoro-1-{[(2S)-oxetan-2-yl]methyl}-1H-1,3-benzodiazole-6-carboxylic acid] showed an EC50 of 0.0012 nM.
The value for `CO[C@H]1COC[C@H]1n1c(CN2CCC(c3cccc4c3OC[C@@H](c3ccc(Cl)cc3)O4)CC2)nc2c(F)cc(C(=O)O)cc21` [Compound 123] was 1.9 nM; that for `COc1cc(C(=O)O)cc2c1nc(CN1CCC(c3cccc4c3OC[C@@H](c3ccc(C#N)cc3)O4)CC1)n2[C@@H]1COC[C@@H]1OC` [Compound 124] was 0.68 nM.
As for `O=C(O)c1ccc2nc(CN3CC=C(c4cccc5c4OC[C@@H](c4ccc(Cl)cc4)O5)CC3)n(C[C@@H]3CCO3)c2c1` [Compound 125], the EC50 was 0.77 nM.
Under `CC1=C(c2cccc3c2OC[C@@H](c2ccc(Cl)cc2)O3)CCN(Cc2nc3ccc(C(=O)O)cc3n2C[C@@H]2CCO2)C1` [Compound 126] stands 1.6 nM.
The value for `O=C(O)c1ccc2nc(CN3CCC4(c5cccc6c5OC[C@@H](c5ccc(Cl)cc5)O6)CC4C3)n(C[C@@H]3CCO3)c2c1` (stereo partly drawn) [Compound 127] was 500 nM.
Under `O=C(O)c1ccc2nc(CN3CCC(c4nccc5c4OC[C@@H](c4ccc(Cl)cc4)O5)CC3)n(C[C@@H]3CCO3)c2c1` [Compound 128] stands 0.79 nM; under `O=C(O)c1ccc2nc(CN3CCC(c4c(F)ccc5c4OC[C@@H](c4ccc(Cl)cc4)O5)CC3)n(C[C@@H]3CCO3)c2c1` [Compound 129, 2-[[4-[(2R)-2-(4-chlorophenyl)-6-fluoro-2,3-dihydro-1,4-benzodioxin-5-yl]-1-piperidyl]methyl]-3-[[(2S)-oxetan-2-yl]methyl]benzimidazole-5-carboxylic acid], 0.38 nM.
Compound `O=C(O)c1ccc2nc(CN3CCC(c4ccnc5c4OC[C@@H](c4ccc(Cl)cc4)O5)CC3)n(C[C@@H]3CCO3)c2c1` [Compound 130, 2-((4-((R)-3-(4-chlorophenyl)-2,3-dihydro-[1,4]dioxino[2,3-b]pyridin-8-yl)piperidin-1-yl)methyl)-1-(((S)-oxetan-2-yl)methyl)-1H-benzo[d]imidazole-6-carboxylic acid] yielded an EC50 of 0.16 nM.
